Test results published in US20220110985A1, “NUTRITIONAL COMPOSITION COMPRISING 2'FUCOSYLLACTOSE AND 3'GALACTOSYLLACTOSE” (N.V. Nutricia, priority 2019, published 2022).

Legend:
Caco-2 cell monolayer = assay: DON-induced impairment of Caco-2 cell monolayer integrity (TEER, lucifer yellow flux); type: cell-based, human; conditions: for effect on DON-induced loss of epithelial barrier integrity (TEER, LY flux), in words: 24 h pretreatment (GLs 0.75 wt. %; 2′-FL 1 mg/ml), then DON 4.2 μM 24 h
Procedure: Beta1,3′-galactosyl-lactose (beta3′-GL), beta1,4′-galactosyllactose (beta4′-GL) and beta1,6′-galactosyl-lactose (beta6′-GL) were obtained from Carbosynth (Berkshire, UK). Alpha1,3′-galactosyl-lactose (alpha3′-GL) was obtained from Elicityl (Crolles, France). Purified deoxydivalenol (DON) (D0156; Sigma Aldrich, St Luis, Mo., USA) was dissolved in pure ethanol and stored at −20° C. Human epithelial colorectal adenocarcinoma (Caco-2) cells were obtained from American […] (Code HTB-37) (Manasse, Va., USA, passage 90-102).
Caco-2 cells were used according to established methods. In brief: cells were cultured in Dulbecco's modified Eagle medium (DMEM) and seeded at a density of 0.3×10^5 cells into 0.3 cm^2 high pore density (0.4 μm) inserts with a polyethylene terephthalate membrane (BD Biosciences, Franklin Lakes, N.J., USA) placed in a 24-well plate. The Caco-2 cells were maintained in a humidified atmosphere of 95 air and 5% CO2 at 37° C.
Caco-2 cell monolayers were thus grown in a transwell system, which is a model for intestinal barrier function. The monolayers were pretreated for 24 h with different GLs, including beta3′-GL, alpha3′-GL, beta4′-GL and beta6′-GL in a concentration of 0.75 wt. % of the GL, before being exposed to the fungal toxin deoxynivalenol (DON), which is a trigger and model compound to impair intestinal barrier. DON was diluted to a final concentration of 4.2 μM in complete cell medium and added to the apical side as well as to the basolateral side of the transwell inserts. […] Incubation with DON was 24 h.
Measurements of the transepithelial electrical resistance (TEER) and lucifer yellow (LY) permeability were conducted to investigate barrier integrity. For TEER measurements a Millicel-ERS voltohmmeter connected to a pair of chopsticks electrodes was used to measure the TEER values. Results are expressed as a percentage of the initial value. For paracellular tracer flux assay the membrane impermeable lucifer yellow (LY) (Sigma, St Luis, Mo., USA) was added in a concentration of 16 μg/ml to the apical compartment in the transwell plate for 4 h, and the paracellular flux was determined by measuring the fluorescence intensity in the basolateral compartment with a spectrophotofluorimeter (FLUOstar Optima, BMG Labtech, Offenburg, Germany) set at excitation and emission wavelengths of 410 and 520 nm, respectively. Release of interleukin-8 (IL-8 or CXCL8), which is a typical marker for inflammation, was quantified in the medium of the apical side and the basolateral side of the Caco-2 transwell inserts in response to the treatments. CXCL8 concentrations were measured by using the human IL-8 ELISA assay (BD Biosciences, Pharmingem, San Diego, Calif., USA) according to manufacturer's instructions. For more details on materials and methods see Akbari et al, 2016, Eur J Nutr. 56(5):1919-1930.

[1] = test system: human PBMC, CD3/CD28 stimulated; assay: Cytokine production of CD3/CD28 stimulated PBMC; type: cell-based; conditions: for CCL17 levels, in words / levels of IL-4 and IL-13 as compared to control, in words: CD3/CD28 stimulated PBMC, pre-incubation; for Relative level of CCL17, Mean (s.e.) / Relative level of IL-4, Mean (s.e.) / Relative level of IL-13, Mean (s.e.): CD3/CD28 stimulated, 24 h pre-incubation, 0.2 wt % 2′-FL, 0.1 wt % 3′-GL, blanc = 1, observed
Procedure: Isolation of PBMC from healthy donors: Human peripheral blood mononuclear cells (PBMC) from healthy donors were isolated from buffy coats (Sanquin, Amsterdam, the Netherlands). PBMC were obtained by centrifugation using Leucosep tubes (Greiner Bio-One). PBMC were collected and washed in PBS (Gibco, Thermo Fisher Technologies)+2% heat-inactivated FCS (Invitrogen), followed by hypotonic lysis of erythrocytes with sterile lysis buffer (0.15 M NH4Cl, 0.01 M KHCO3 and 0.1 mM EDTA, pH of 7.4 at 4° C., all from Merck, Darmstadt, Germany). After lysis, the PBMC were resuspended in freezing medium (70% RPMI 1640 medium (Gibco, Thermo Fisher Technologies) supplemented with 10% heat-inactivated FCS and 100 U/ml penicillin-streptomycin, 20% heat-inactivated FCS and 10% DMSO (Sigma)) and cryopreserved.
PBMC activation model: PBMC (0.2·10^6 cell/well) were cultured in 96-well flat bottom plates (Corning). For 24 hours the cells were pre-incubated with 2′-FL (Jennewein), 3′-GL (0-0.3% w/v; Carbosynth) or sodium butyrate (0.2 mM; Sigma Aldrich) and combinations thereof. Subsequently, the cells were CD3/CD28-activated (Pelicluster CD3 and Pelicluster CD28, Sanquin) for an additional 24 hours. After incubation, IFNγ was measured by ELISA in the supernatants (see below). To determine cell activity after stimulation, PBMC were incubated with cell proliferation reagent WST-1 (10 μl; Roche) and/or 10% Triton (5 μl; negative control). After 3 hours, absorbance was measured at OD450 nm and OD650 nm and cell activity was calculated according to manufacturer's instructions.
Cytokine production of PBMC: PBMC were incubated with indicated reagents. After incubation, the supernatants were collected and IL2, IL6, IL10, IL13, IL21, TNFα, IFNγ, MIF, CCL1, CCL13, CCL17, CCL20, CCL22 and CXCL8-11 levels were measured by conducting a validated multiplex immunoassay based on Luminex technology (xMAP, Luminex Austin Tex. USA). Acquisition was conducted with the Biorad FlexMAP3D (Biorad laboratories, Hercules USA) in combination with xPONENT software version 4.2 (Luminex). Data was analyzed by 5-parametric curve fitting using Bio-Plex Manager software, version 6.1.1 (Biorad).
After PBMC stimulation, cell culture supernatants were collected, after which cytokine responses were measured in order to test immune responsiveness of the cells. The levels of cytokines measured in stimulated conditions were corrected for the (low) levels of the cytokines measured in non-stimulated conditions. In addition, since each donor is reacting in its own efficiency onto the T cell stimulus, we calculated the individual index of cytokine response by dividing the intervention induced response by the basal stimulated response.
Subsequently, in order to test the direct effect of specific compounds on PBMC activity, the cells were activated with CD3/CD28 for 24 hours after a pre-incubated for 24 h with either 2′-FL, 3′-GL and combinations thereof. In addition, since each donor is reacting in its own efficiency onto the T cell stimulus, the individual index of cytokine response was calculated by dividing the intervention induced response by the basal stimulated response (the blanc is set at 1). In this way the intervention within 10 different donors has been studied.

[2] = Caco-2 monolayer, DON 4.2 μM, 2′-FL 1 mg/ml

Row | Molecule | effect on DON-induced loss of epithelial barrier integrity (TEER, LY flux), in words (Caco-2 cell monolayer) | Lucifer yellow flux (Caco-2 cell monolayer; [2]) | TEER (% of initial value) Mean (s.e.) (Caco-2 cell monolayer; [2]) | CCL17 levels, in words [1] | levels of IL-4 and IL-13 as compared to control, in words [1] | Relative level of CCL17, Mean (s.e.) [1] | Relative level of IL-4, Mean (s.e.) [1] | Relative level of IL-13, Mean (s.e.) [1]
1 | C[C@@H]1O[C@@H](O[C@H]2[C@H](O[C@H]3[C@H](O)[C@@H](O)C(O)O[C@@H]3CO)O[C@H](CO)[C@H](O)[C@@H]2O)[C@@H](O)[C@H](O)[C@@H]1O (stereo partly drawn) [2′-FL, α-L-Fuc-(1→2)-β-D-Gal-(1→4)-D-Glc] | statistically significantly prevent the DON induced reduction in TEER and increase in LYF | 446.4 (8.302)^∧ ng/ml (cm^2xh) | 42.79 (0.844)^∧∧ % of initial value | no significant effect | had no effect | 1.061 (0.117) | 0.9887 (0.0517) | 1.039 (0.080)
2 | Gal (beta 1-3)-Gal (beta 1-4)-Glc [3′-GL] | prevented the DON-induced loss of epithelial barrier integrity | – | – | no significant effect | a decrease was detected | 0.6212 (0.0531) | 0.5825 (0.0413) | 0.5472 (0.0723)
